# Reference: patent US20240180887A1, “USE OF PPAR(gamma) AGONISTS OR MPC INHIBITORS FOR TREATING PRIMARY, INNATE DISEASES OF THE CARDIAC MUSCLE (CARDIOMYOPATHIES)” (PREVENTAGE THERAPEUTICS GMBH, priority 2021, published 2024)
# “Also recorded” adds a separate entry of the source.
# Legend:
# [1] = test system: αMHC^719/+ HCM mouse model; assay: Preclinical αMHC^719/+ HCM mouse model, overall summary of results; type: in vivo; settings: oral administration in the αMHC^719/+ HCM mouse model
# Description: The examinations were carried out on an established HCM mouse model, in which an arginine-to-tryptophan mutation at position 719 of the heavy chain of the cardiac mouse alpha-myosin gene was effected by homologous recombination (referred to as αMHC^719/+)^38. Such genetically modified mice increasingly develop the typical pathognomonic disease characteristics of hypertrophic cardiomyopathy such as myocardial hypertrophy and fibrosis with increasing age. The phenotype of this genetically generated HCM mouse model thus simulates the phenotype of HCM patients affected^36,37,38. The manifestation of the disease can be accelerated by subcutaneous administration of the calcineurin inhibitor cyclosporin A (CsA)^9.
# Between their 6th and 12th postnatal week, all mice were injected subcutaneously with cyclosporin A (CsA) to accelerate hypertrophic remodeling in the myocardium in the HCM mouse model^9. Half of the mice were treated with the PPARγ agonists rosiglitazone and pioglitazone from the group of thiazolidinediones between their 6th and 12th postnatal week. In their 12th postnatal week, they were subjected to in vivo transthoracic echocardiography. The animals were then euthanized for ex vivo examination (organ removal, histopathology, and determination of radical oxygen species, of mRNA and protein expression in the tissue) (see FIG. 10).D
# cardiac myosin = assay: Mant-ATP assay of left ventricular cardiac myosins (DRX vs SRX state); type: in vivo, mouse; settings: αMHC^719/+ mice treated with pioglitazone vs untreated αMHC^719/+ mice
# Source text: FIG. 5 Examination of the percentages of left ventricular cardiac myosins in the DRX (disordered relaxation) compared to the SRX (super-relaxed) state using a fluorescent ATP analog. […] The treatment of the HCM mouse model with pioglitazone thus also has a positive effect on the functional properties of the left ventricular heart muscle tissue. The results of this Mant-ATP assay indicate that it was possible to prevent the changes in the biophysical properties of the myosins, which are described as being the cause of hypertrophic cardiomyopathy, in the mice treated with pioglitazone.
# Cardiac myosin ATPase activity was measured by Mant-ATP assay, which examines cardiomyocyte contractility and relaxation indirectly by measuring the activity of cardiac myosin ATPase. For this purpose, the Mant-ATP assay (Roche) was applied in the left ventricular myocardium of the different mouse groups, which was shock-frosted in liquid nitrogen and stored in frozen state at −80° C. Mant-ATP is a fluorescent, […] ATP that binds the head of the cardiac myosin. The assay measures the release of Mant-ATP after addition of ATP^44,45.
# HCM mice (αMHC^719/+) [2] = assay: Histopathology of left ventricular myocardium, Masson's trichrome (myocardial fibrosis), experimental setup A; type: in vivo, mouse
# Source text: FIG. 6 Histopathology of the left ventricular myocardium of wild-type (WT) and HCM mice (αMHC^719/+) with and without treatment with pioglitazone (PIO) after 6 weeks; myocardial fibrosis appears in medium gray in the Masson's trichrome-stained histological sections. […] HCM mice show massive myocardial fibrosis (white arrows in (C)).
# In order to quantify myocardial fibrosis, the removed hearts were fixed in 4% paraformaldehyde, dehydrated, and placed in paraffin, as described above^37,42,43. 5-μm sections were stained with Masson's trichrome and hematoxylin-eosin. The extent of myocardial fibrosis was quantified by a digitized method by calculating the percentage of cardiac muscle portions stained blue with Masson's trichrome in relation to the overall stained cardiac muscle. Perivascular and intramurine structures, the endocardium, or trabeculas were excluded in the calculation of the percentage of fibrosis.
# [3] = test system: Acta1, Col1a1, Col1a2, Cyba, Gdf15, Hif1a, Icam1, IL33, Mmp2, Nfkb1, Nox4, Nppa, Postn, Tgfb1, Tgfb2, Tgfb3; assay: mRNA expression of pro-hypertrophic, pro-fibrotic and pro-inflammatory genes in left ventricular myocardium (RNA sequencing); type: in vivo, mouse; settings: αMHC^719/+ mice treated with pioglitazone vs untreated, p<0.001
# Description: FIG. 8 The mRNA expression of pro-hypertrophic, pro-fibrotic, and pro-inflammatory genes such as Acta1, Col1a1, Col1a2, Cyba, Gdf15, Hif1a, Icam1, IL33, Mmp2, Nfkb1, Nox4, Nppa, Postn, Tgfb1, Tgfb2, and Tgfb3 is increased in the left ventricular myocardium of αMHC^719/+ HCM mice (HET) compared to wild-type mice (WT) (HET/WT). […] Strand-specific, polyA-enriched RNA sequencing was carried out as described above^51. The RNA was isolated using the AllPrep RNA Kit (Qiagen). The RNA integrity number (RIN) was determined using the Agilent 2100 BioAnalyzer (RNA 6000 Nano Kit, Agilent). In order to prepare the library, 1 μg RNA was poly(A)-selected, fragmented, and reverse-transcribed with the Elute, Prime, Fragment Mix (Illumina). […] RNA libraries were tested for quality and quantity using the Agilent 2100 BioAnalyzer and the Quant-iT PicoGreen dsDNA Assay Kit (Life Technologies). […] The STAR Aligner (version 2.4.2a)^52 with modified parameter settings (--twopassMode=Basic) was used for the split-read alignment against the […] genome assembly hg19 (GRCh37) and the UCSC knownGene annotation. HTseq-count (version 0.6.0)^53 was used to quantify the number of reads mapped to annotated genes. FPKM values (fragments per kilobase of transcript per million fragments mapped) were calculated using custom scripts. […]
# [4] = test system: radical oxygen species (ROS); assay: Radical oxygen species (ROS) in left ventricular myocardium by electron paramagnetic resonance spectroscopy; type: in vivo, mouse; settings: αMHC^719/+ mice treated with pioglitazone vs untreated HCM mice, 6 weeks, p=0.053
# Source text: Reduction of oxidative stress: The treatment with PPARγ agonists leads to reduced expression of hypoxia-inducible factor 1-alpha, a major transcription factor in the redox signaling pathway. As a result, less radical oxygen species are produced in the left ventricular myocardium, thereby reducing cellular oxidative stress. A protective effect on the pathological remodeling of the cardiac muscle was observed.
# Electron paramagnetic resonance (EPR) was applied as described in order to calculate the production of radical oxygen species (ROS) in the left ventricular myocardium^46-48. […] The analysis of ROS generation was carried out at 37° C. for 10 minutes with 20 scans in an Escan EPR spectrometer under temperature control (Noxygen) and the following parameters: microwave power 23.89 mW; center field 3459-3466 G; steep width 10 G, frequency 9.7690 GHz and modulation amplitude 2.93 G. ROS generation was calculated by means of linear regression and normalized to the cellular protein content.
# HCM mice (αMHC^719/+) [5] = assay: Heart-to-body weight ratio ex vivo after organ removal; type: in vivo, mouse; settings: αMHC^719/+ mice, pioglitazone 10 mg/kg of body weight/day orally, 6 weeks, vs untreated αMHC^719/+ mice, p=0.008
# Description: The mice were weighed and euthanized to calculate the heart-to-body weight ratio. The thorax was opened quickly, and the heart was removed and washed twice in cold PBS solution. The large vessels and connective tissue were removed, the heart was swapped dry and weighed, and the heart and body weight of the mouse were determined.
compound,measurement,setting,value
"CCc1ccc(CCOc2ccc(CC3SC(=O)NC3=O)cc2)nc1 (racemic) [pioglitazone, (RS)-5-{p-[2-(5-ethyl-2-pyridyl)ethoxy]benzyl}-2,4-thiazolidinedione]",changes in biophysical properties in the heart muscle cell and onset of myocardial hypertrophy and fibrosis,[1],largely prevents
same,percentages of left ventricular cardiac myosins in the DRX compared to the SRX state,cardiac myosin,significant shift towards the SRX state; also recorded: prevents the functional biophysical changes
same,myocardial fibrosis in wild-type mice,"HCM mice (αMHC^719/+) [2]; wild-type mice with treatment with pioglitazone, 6 weeks",hardly any fibrosis
same,formation of myocardial fibrosis (histological sections),"HCM mice (αMHC^719/+) [2]; αMHC^719/+ mice, pioglitazone 10 mg/kg of body weight/day orally, 6 weeks",almost completely prevents the formation of myocardial fibrosis
same,fibrosis after semi-automated threshold detection of collagen (ImageJ),"HCM mice (αMHC^719/+) [2]; αMHC^719/+ mice, pioglitazone 10 mg/kg/day orally vs untreated HCM mice, p=0.017",significantly less fibrosis
same,"overexpression of pro-hypertrophic, pro-fibrotic and pro-inflammatory genes (HET+PIO/HET)",[3],significantly reduced or completely prevented; also recorded: prevents
same,production of radical oxygen species in the left ventricular myocardium,[4],significantly decreased
same,production of radical oxygen species in the left ventricular myocardium,[4]; listed as poglitazone,significantly reduced
same,development of myocardial hypertrophy (heart-to-body weight ratio ex vivo),HCM mice (αMHC^719/+) [5],completely inhibited
